Measurements from ChEMBL document CHEMBL4483862, “Open-source discovery of chemical leads for next-generation chemoprotective antimalarials” (2018).

System: Plasmodium berghei
Assay: Luciferase/luciferin-expressing antifolate-resistant parasites were used to infect a culture of HepG2 cells that were pre-incubated with compounds. Infected hepatocytes emit light due to the luciferase reaction. Assay results are presented as the percent inhibition of light emission compared to control. […]
Format: functional
Conditions: sporozoite; for IC90: read-out: LUCIFERASE INFECTION ASSAY - IC90
[1] = read-out: LUCIFERASE INFECTION ASSAY - IC50

Structure (SMILES) | IC90 [µM] | IC50 [1] [µM] | other results
Cc1ccc(NC(=O)/C=C/c2c(C)nn(CC(C)C)c2Cl)cc1 | > 10 | – | IC50 (HEPG2TOX_HILL_SLOPE 7.42, HEPG2TOX_R_SQUARED 0.403, read-out: LUCIFERASE INFECTION ASSAY - IC50): > 10 µM
Cc1ccc(NC(=O)c2cc(-c3ccc4c(c3)OCCO4)nc3c2cnn3C(C)C)nc1 | > 10 | > 10 | –
NC(=S)CCOC1CCN(Cc2ccccc2)CC1 | > 11.9 | > 11.9 | –
CN1C(=O)NC(c2ccccc2C(F)(F)F)C(C(=O)c2cccs2)C1(O)C(F)(F)F (configuration not stated) | > 10 | > 10 | –
CCCCNC(=O)NC(=O)CNc1cc(S(=O)(=O)N2CCCCC2)ccc1OCC | > 10 | – | IC50 (HEPG2TOX_HILL_SLOPE 3.87, HEPG2TOX_R_SQUARED 0.807, PBLUC_HILL_SLOPE 2.62, PBLUC_R_SQUARED 0.78, read-out: LUCIFERASE INFECTION ASSAY - IC50): 5.03 µM
CC(C)C(NC(=O)c1ccc(C(C)(C)C)cc1)C(=O)Nc1ncc(Cc2ccc(Cl)cc2)s1 (configuration not stated) | > 10 | > 10 | –
CC(=O)c1sc(SCCS(=O)(=O)c2ccc(C)cc2)c2c1CC(C)(C)CC2=O | > 7.56 | > 7.56 | –
Cc1nc2c(C(N)=O)ncn2c(C)c1CCC(=O)Nc1ccc2oc3ccccc3c2c1 | 9.76 | – | IC50 (PBLUC_HILL_SLOPE 15.8, PBLUC_R_SQUARED 0.091, read-out: LUCIFERASE INFECTION ASSAY - IC50): 9.25 µM
CCCCN(C(=O)c1cccnc1SC)c1nc2ccc(C)cc2s1 | > 10 | > 10 | –
Cc1cc(C(=O)Cn2nnc3ccccc3c2=O)c(C)n1-c1ccccc1 | 0.0451 | – | IC50 (HEPG2TOX_HILL_SLOPE 3.03, HEPG2TOX_R_SQUARED 0.216, PBLUC_HILL_SLOPE 10.9, PBLUC_R_SQUARED 0.324, read-out: LUCIFERASE INFECTION ASSAY - IC50): 0.0369 µM
CC(=O)c1cnc2sc(C(=O)OC3CCCCC3)c(C)c2c1 | 3.88 | – | IC50 (PBLUC_HILL_SLOPE 13.1, PBLUC_R_SQUARED 0.209, read-out: LUCIFERASE INFECTION ASSAY - IC50): 3.28 µM
NC(=O)c1cccc(-c2cn3c(-c4cccc(OC(F)(F)F)c4)cnc3cn2)c1 | 8.06 | – | IC50 (PBLUC_HILL_SLOPE 12.4, PBLUC_R_SQUARED 0.473, read-out: LUCIFERASE INFECTION ASSAY - IC50): 6.74 µM
COc1ccc(-n2c(C)cc(C(=O)COC(=O)[C@@H](NS(=O)(=O)c3ccc4c(c3)OCCO4)C(C)C)c2C)cc1 | > 10 | > 10 | –
Cc1cc(N(C)C(C)c2ccc(-n3cnc4ccccc43)cc2)n2ncnc2n1 (configuration not stated) | > 10 | – | IC50 (HEPG2TOX_HILL_SLOPE 9.21, HEPG2TOX_R_SQUARED 0.124, PBLUC_HILL_SLOPE 9.5, PBLUC_R_SQUARED 0.615, read-out: LUCIFERASE INFECTION ASSAY - IC50): 8.2 µM
COc1ccc(Cc2nc(Oc3ccc(C(C)=O)cc3OC)c3c4c(sc3n2)CCC4)cc1OC | > 10 | – | IC50 (HEPG2TOX_HILL_SLOPE 23.6, HEPG2TOX_R_SQUARED 0.901, PBLUC_HILL_SLOPE 2.45, PBLUC_R_SQUARED 0.768, read-out: LUCIFERASE INFECTION ASSAY - IC50): 4.61 µM
Cc1ccc2nc(CNc3cc(Cl)ccc3N3CCCC3)cc(=O)n2c1 | > 10 | > 10 | –
COc1cc(NC(=S)Nc2cccc(OC(F)(F)F)c2)cc(C(F)(F)F)c1 | > 8.04 | – | IC50 (PBLUC_HILL_SLOPE 0.721, PBLUC_R_SQUARED 0.563, read-out: LUCIFERASE INFECTION ASSAY - IC50): 2.34 µM
CCCSC(=S)c1c(C)nn(-c2ccccc2)c1O | > 11.3 | – | IC50 (PBLUC_HILL_SLOPE 10.5, PBLUC_R_SQUARED 0.318, read-out: LUCIFERASE INFECTION ASSAY - IC50): 10.1 µM
CC(=O)c1ccc(NC(=O)c2nn(-c3ccccc3)c3c2C2CCC3(C)C2(C)C)cc1 (configuration not stated) | > 10 | – | IC50 (FFLUC_HILL_SLOPE 16.9, FFLUC_R_SQUARED 0.354, read-out: LUCIFERASE INFECTION ASSAY - IC50): > 10 µM
CC(C)(CNC(=O)Nc1ccccc1)SCc1ccc(Cl)cc1 | > 9.46 | – | IC50 (PBLUC_HILL_SLOPE 4.79, PBLUC_R_SQUARED 0.408, read-out: LUCIFERASE INFECTION ASSAY - IC50): 6.73 µM
O=C(CN1CCN(S(=O)(=O)c2cccs2)CC1)Nc1ccccc1C(=O)c1ccccc1 | > 10 | – | IC50 (PBLUC_HILL_SLOPE 1.98, PBLUC_R_SQUARED 0.361, read-out: LUCIFERASE INFECTION ASSAY - IC50): 5.33 µM
COc1ccc(CCn2nc(C(=O)NC3CC3)c3c2CCN(C(=O)c2cc(C)n[nH]2)C3)cc1 | 4.91 | – | IC50 (PBLUC_HILL_SLOPE 5.54, PBLUC_R_SQUARED 0.701, read-out: LUCIFERASE INFECTION ASSAY - IC50): 3.31 µM
CN(C)c1ccc(-c2cnc3cnc(-c4ccc(C(=O)NCCO)cc4)cn23)cc1 | > 8.22 | – | IC50 (PBLUC_HILL_SLOPE 2.64, PBLUC_R_SQUARED 0.078, read-out: LUCIFERASE INFECTION ASSAY - IC50): 6.1 µM

Structure (SMILES) | IC90 [µM] | IC50 [1] [µM] | other results
COc1ncccc1C(=O)NNC(=O)c1nc(-c2ccccc2)n(-c2ccccc2)n1 | 3.43 | – | IC50 (HEPG2TOX_HILL_SLOPE 3.74, HEPG2TOX_R_SQUARED 0.853, PBLUC_HILL_SLOPE 83.7, PBLUC_R_SQUARED 0.266, read-out: LUCIFERASE INFECTION ASSAY - IC50): 3.34 µM
O=C(Nc1ccccc1C(=O)OCC(=O)N1c2ccccc2Sc2ccccc21)c1ccco1 | > 10 | – | IC50 (FFLUC_HILL_SLOPE 10.6, FFLUC_R_SQUARED 0.388, PBLUC_HILL_SLOPE 2.08, PBLUC_R_SQUARED 0.607, read-out: LUCIFERASE INFECTION ASSAY - IC50): 7.58 µM
COc1ccccc1NC(=O)/C=c1\s/c(=C\c2cnn(-c3ccccc3)c2)c(=O)n1C | 0.632 | – | IC50 (HEPG2TOX_HILL_SLOPE 1.6, HEPG2TOX_R_SQUARED 0.888, PBLUC_HILL_SLOPE 1.61, PBLUC_R_SQUARED 0.941, read-out: LUCIFERASE INFECTION ASSAY - IC50): 0.161 µM
Clc1ccc2[nH]c(-c3cccs3)c(-c3ccccc3)c2c1 | > 10.7 | 5.01 | –
CCCCNC(=O)c1c(NC(=O)c2cccc(OC)c2)nc2ccc(C)cn12 | 3.2 | 2.79 | –
Cc1cc(-c2cn3c(-c4ccc5ncccc5c4)cnc3cn2)cc(C)c1O | > 9.01 | 8.6 | –
O=S(=O)(c1cc(C(F)(F)F)ccn1)c1cccs1 | > 11.3 | > 11.3 | –
CCOC(=O)/C=c1\s/c(=C\c2ccc(Cl)cc2)c(=O)n1CC(=O)c1ccc(Cl)cc1 | > 10 | > 10 | –
COc1ccc(Cn2c(C)nc3oc4ccccc4c(=O)c3c2=O)cc1 | > 9.47 | – | IC50 (PBLUC_HILL_SLOPE 3.46, PBLUC_R_SQUARED 0.26, read-out: LUCIFERASE INFECTION ASSAY - IC50): 6.48 µM
Cc1sc2ncnc(SCC(=O)NC3CCN(Cc4ccccc4)C3)c2c1C (configuration not stated) | > 10 | > 10 | –
Cc1cc(/C=C(\C#N)C(=O)OCc2ccccn2)c(C)n1CC(C)C | > 10 | – | IC50 (PBLUC_HILL_SLOPE 0.483, PBLUC_R_SQUARED 0.335, read-out: LUCIFERASE INFECTION ASSAY - IC50): 6.62 µM
O=C(OC1(C(F)(F)F)C(=O)Nc2c1ccc1ccccc21)c1cccs1 (configuration not stated) | > 10 | – | IC50 (FFLUC_HILL_SLOPE 2.8, FFLUC_R_SQUARED 0.511, PBLUC_HILL_SLOPE 11.1, PBLUC_R_SQUARED 0.378, read-out: LUCIFERASE INFECTION ASSAY - IC50): 9.81 µM
CC(C)=CC(=O)NC(c1ccccc1)c1ccc(Cl)cc1 (configuration not stated) | > 10 | > 10 | –
CCOc1ccc(-c2nc(C(=O)Nc3ncccc3O)cs2)cc1 | 3.84 | – | IC50 (PBLUC_HILL_SLOPE 16.6, PBLUC_R_SQUARED 0.386, read-out: LUCIFERASE INFECTION ASSAY - IC50): 3.36 µM
Cc1ccc(O)c(/C=N/NC(=S)NC(C)(C)C)c1 | > 12.4 | – | IC50 (PBLUC_HILL_SLOPE 24.9, PBLUC_R_SQUARED 0.247, read-out: LUCIFERASE INFECTION ASSAY - IC50): 11.8 µM
CCc1cc(-c2n[nH]cc2-c2ccc3c(c2)OCCO3)c(O)cc1OC | 1.59 | – | IC50 (HEPG2TOX_HILL_SLOPE 1.05, HEPG2TOX_R_SQUARED 0.928, PBLUC_HILL_SLOPE 1.82, PBLUC_R_SQUARED 0.694, read-out: LUCIFERASE INFECTION ASSAY - IC50): 0.474 µM
C=CCN(CC=C)C(CNc1ccc2nnc(C(F)(F)F)n2n1)C(C)C (configuration not stated) | > 10 | – | IC50 (PBLUC_HILL_SLOPE 8.1, PBLUC_R_SQUARED 0.171, read-out: LUCIFERASE INFECTION ASSAY - IC50): 8.34 µM
CN1N=C2c3ccccc3CCC2C1c1ccc(Cl)cc1 (configuration not stated) | 4 | – | IC50 (PBLUC_HILL_SLOPE 2.13, PBLUC_R_SQUARED 0.455, read-out: LUCIFERASE INFECTION ASSAY - IC50): 1.42 µM
Cn1c(NCc2ccccc2F)nc2cnc(-c3ccc4c(c3)OCO4)cc21 | 5.21 | – | IC50 (HEPG2TOX_HILL_SLOPE 10, HEPG2TOX_R_SQUARED 0.935, PBLUC_HILL_SLOPE 10.5, PBLUC_R_SQUARED 0.0559, read-out: LUCIFERASE INFECTION ASSAY - IC50): 4.23 µM
COc1c(Cl)cc(Cl)c(OC)c1C(=O)NC(=O)Nc1cc(C(F)(F)F)cc(C(F)(F)F)c1 | 2.23 | 2.06 | –
O=C(Nc1ccccc1)OCc1cccnc1Sc1ccc(Cl)cc1 | > 8.9 | > 8.9 | –
CN(C)c1ccc(C(c2cc(C(C)(C)C)c(O)c(C(C)(C)C)c2)N2CCN(CCO)CC2)cc1 (configuration not stated) | > 10 | – | IC50 (FFLUC_HILL_SLOPE 1.7, FFLUC_R_SQUARED 0.646, PBLUC_HILL_SLOPE 0.736, PBLUC_R_SQUARED 0.152, read-out: LUCIFERASE INFECTION ASSAY - IC50): > 10 µM
O=C1C(=O)N(CCN2CCCCC2)c2ccc(F)cc21 | > 11.9 | > 11.9 | –
